Data taken from patent US12281102B2, “Inhibitors of APOL1 and methods of using same” (Vertex Pharmaceuticals Incorporated, priority 2020, dated 2025).

What was measured:
APOL1 G1 Protein = biological target: T1, APOL1 G1 Protein (Homo sapiens, UniProt O14791, I384M/S342G); experiment: Trypanosoma brucei brucei lysis assay using APOL1 recombinant protein (AlamarBlue viability); format: cell-based; settings: Trypanosoma brucei brucei lysis with recombinant APOL1 protein
T1 sequence (O14791 28-398 S342G/I384M): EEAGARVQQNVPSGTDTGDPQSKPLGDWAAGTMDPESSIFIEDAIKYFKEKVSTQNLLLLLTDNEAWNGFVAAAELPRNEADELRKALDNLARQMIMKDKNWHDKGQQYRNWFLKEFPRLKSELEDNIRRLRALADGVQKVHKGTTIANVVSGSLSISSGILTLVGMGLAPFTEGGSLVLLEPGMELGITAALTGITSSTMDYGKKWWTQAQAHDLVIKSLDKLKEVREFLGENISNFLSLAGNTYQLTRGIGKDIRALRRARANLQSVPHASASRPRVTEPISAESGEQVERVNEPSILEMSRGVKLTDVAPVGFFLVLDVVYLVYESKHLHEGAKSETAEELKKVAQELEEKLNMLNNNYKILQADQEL

G1 APOL1 = biological target: T2, G1 APOL1 (Homo sapiens, UniProt O14791, I384M/S342G); experiment: Acute APOL1 Thallium Assay with inducible stable clones of HEK 293 cells; format: cell-based; settings: HEK 293 T-Rex inducible stable clone expressing G1 APOL1; read-out: Thallium Assay (IC50)
T2 construct: expressed in transfected cells
T2 sequence (O14791 28-398 S342G/I384M): T1 sequence (O14791 28-398 S342G/I384M)
Outline: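 APOL1 pore function was measured as thallium influx, detected by a Tl+-sensitive fluorescent dye loaded as AM ester, on a FLIPR Tetra after Tl+ addition. Cells were HEK T-Rex G1 APOL1 clone DC3.25, 26,000 per well, induced with tetracycline at plating in Opti-MEM assay medium.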

Compound	IC50 (G1 APOL1)	IC50 (APOL1 G1 Protein)
Cc1ccc(-c2[nH]c3c(F)cc(F)cc3c2C2CC(N)C2)cc1 (mixture of isomers) [Compound 4, 3-[5,7-difluoro-2-(p-tolyl)-1H-indol-3-yl]cyclobutanamine]	< 250 nM	< 250 nM
O[C@H]1C[C@H](c2c(-c3ccc(F)cc3)[nH]c3c(F)cc(F)cc32)C1 [Compound 174, (1r,3r)-3-(5,7-difluoro-2-(4-fluorophenyl)-1H-indol-3-yl)cyclobutan-1-ol]	< 250 nM	< 250 nM
Cc1ccc(-c2[nH]c3c(F)cc(F)cc3c2C2CC(CN)C2)cc1 (centres unmarked) [Compound 184]	< 250 nM	< 250 nM
CC(=O)NC1CC(c2c(-c3ccc(F)cc3)[nH]c3c(F)cc(F)cc23)C1 (centres unmarked) [Compound 17, N-[3-[5,7-difluoro-2-(4-fluorophenyl)-1H-indol-3-yl]cyclobutyl]acetamide]	250 to 1000 nM	250 to 1000 nM
OCC1CC(c2c(-c3ccc(F)cc3)[nH]c3c(F)cc(F)cc23)C1 (centres unmarked) [Compound 424, [3-[5,7-difluoro-2-(4-fluorophenyl)-1H-indol-3-yl]cyclobutyl]methanol]	< 250 nM	< 250 nM
COc1ccc(-c2[nH]c3c(F)cc(F)cc3c2C2CC(N)C2)cc1 (mixture of isomers) [Compound 12, 3-[5,7-difluoro-2-(4-methoxyphenyl)-1H-indol-3-yl]cyclobutanamine]	250 to 1000 nM	< 250 nM
CC1(CN)CC(c2c(-c3ccc(F)cc3)[nH]c3c(F)cc(F)cc23)C1 (centres unmarked) [Compound 426, [3-[5,7-difluoro-2-(4-fluorophenyl)-1H-indol-3-yl]-1-methyl-cyclobutyl]methanamine]	250 to 1000 nM	< 250 nM
COCC(=O)NC1CC(c2c(-c3ccc(F)cc3)[nH]c3c(F)cc(F)cc23)C1 (centres unmarked) [Compound 18, N-[3-[5,7-difluoro-2-(4-fluorophenyl)-1H-indol-3-yl]cyclobutyl]-2-methoxy-acetamide]	250 to 1000 nM	250 to 1000 nM
O=C(CO)NCC1CC(c2c(-c3ccc(F)cc3)[nH]c3c(F)cc(F)cc23)C1 (centres unmarked) [Compound 214]	250 to 1000 nM	250 to 1000 nM
NCC1CC(c2c(-c3ccc(Cl)cc3)[nH]c3c(F)cc(F)cc23)C1 (mixture of isomers) [Compound 176, (3-(2-(4-chlorophenyl)-5,7-difluoro-1H-indol-3-yl)cyclobutyl)methanamine]	< 250 nM	< 250 nM
NC1CC(c2c(-c3ccc(Cl)cc3)[nH]c3c(F)cc(F)cc23)C1 (mixture of isomers) [Compound 10, 3-[2-(4-chlorophenyl)-5,7-difluoro-1H-indol-3-yl]cyclobutanamine]	< 250 nM	< 250 nM
NCC1CC(c2c(-c3ccc(OC(F)F)cc3)[nH]c3c(F)cc(F)cc23)C1 (centres unmarked) [Compound 182]	< 250 nM	< 250 nM

Second part, led by results:

IC50 (G1 APOL1)	Compound	IC50 (APOL1 G1 Protein)
250 to 1000 nM	NCC1(O)CC(c2c(-c3ccc(F)cc3)[nH]c3c(F)cc(F)cc23)C1 (centres unmarked) [Compound 427, 1-(aminomethyl)-3-[5,7-difluoro-2-(4-fluorophenyl)-1H-indol-3-yl]cyclobutanol]	< 250 nM
< 250 nM	COc1ccc(-c2[nH]c3c(F)cc(F)cc3c2C2CC(CN)C2)cc1 (centres unmarked) [Compound 183]	< 250 nM
< 250 nM	O=C(CO)NC1CC(c2c(-c3ccc(F)cc3)[nH]c3c(F)cc(F)cc23)C1 (centres unmarked) [Compound 15, N-[3-[5,7-difluoro-2-(4-fluorophenyl)-1H-indol-3-yl]cyclobutyl]-2-hydroxy-acetamide]	250 to 1000 nM
< 250 nM	COCCNCC1CC(c2c(-c3ccc(F)cc3)[nH]c3c(F)cc(F)cc23)C1 (centres unmarked) [Compound 375]	< 250 nM
< 250 nM	NCC1CC(c2c(-c3ccc(F)cc3)[nH]c3c(F)cc(F)cc23)C1 (mixture of isomers) [Compound 186, (3-(5,7-difluoro-2-(4-fluorophenyl)-1H-indol-3-yl)cyclobutyl)methanamine]	< 250 nM
250 to 1000 nM	O=C(C1CCO1)N1CCC(Cc2c(-c3ccc(F)cc3)[nH]c3c(F)cc(F)cc23)C1 (centres unmarked) [Compound 443, [3-[[5,7-difluoro-2-(4-fluorophenyl)-1H-indol-3-yl]methyl]pyrrolidin-1-yl]-(oxetan-2-yl)methanone]	250 to 1000 nM
> 1000 nM	NC1CC2(C1)CC(c1c(-c3ccc(F)cc3)[nH]c3c(F)cc(F)cc13)C2 (centres unmarked) [Compound 432, 6-[5,7-difluoro-2-(4-fluorophenyl)-1H-indol-3-yl]spiro[3.3]heptan-2-amine]	< 250 nM
